Reference: patent US8841285B2, “Potent immunosuppressive agents, derivatives and uses” (priority 2002, dated 2014)
Like-named read-outs stand apart in the source and are kept apart here.

How the values were obtained:
[1] = tested on: IL-2 promoter luciferase reporter in stimulated Jurkat T cells; assay: IL-2 reporter gene assay (transfected Jurkat cells); assay type: cell-based
Procedure: The ability of these derivatives to inhibit T cell receptor-mediated IL-2 production was analyzed using an IL-2 reporter gene assay. In this assay, a plasmid encoding a reporter gene (luciferase) under the control of the IL-2 promoter was first introduced into Jurkat T cells by transfection. The transfected Jurkat T cells are then stimulated with two pharmacological agents, phorbol myristyl acetate (PMA), which activates protein kinase C, and inonmycin, which allows calcium ion to enter T cells to activate calmodulin and calcineurin. Together, PMA and ionomycin recapitulate T cell receptor signaling, leading to the activation of the luciferase reporter gene by activating the IL-2 promoter. The ability of PatA and its analogs to block T cell receptor-mediated IL-2 expression was measured by their effects on this reporter gene assay. Su, B., et a., Cell 1994, 77, 727-736.

cancer cell lines = assay: cell proliferation assay ([3H]-thymidine incorporation), cancer cell lines; assay type: cell-based
Procedure: Cell Proliferation Assay. 1×10^5 of indicated cells in each well of a 96-well plate were treated with indicated compounds for 24 h followed by addition of 0.11 μCi of [^3H]-thymidine (6.7 Ci/mmol) per well for 6 h, followed by harvesting to GF/C filtermats using a cell harvester. Filtermats were air-dried and scintillation counted. IC50s were determined from quadruplicate data readings and curve-fitting analysis.

stability in CDCl3 = assay type: physicochemical; settings: CDCl3, 25° C.
eIF4A = target: T1, eIF4A (Homo sapiens, UniProt P60842); assay: B-PatA streptavidin pull-down competition; assay type: binding; settings: RKO cell lysate, pre-incubation with competitor
T1 construct: Cell lysates from RKO cells were prepared as previously described; endogenous in cells; host or cells: RKO cell lysate
Procedure: Streptavidin-agarose Pulldown with B-PatA. Cell lysates from RKO cells were prepared as previously described (Griffith et al., 1997). HeLa lysates were prepared in buffer: 10 mM HEPES-OH, pH 7.6, 10 mM KC2H3O2, and 0.5 mM MgC2H3O2. RRL and WGE were diluted about 12 fold using HeLa lysate buffer. All pulldowns included protease inhibitors. Streptavidin-beads were pre-incubated with 10 mg/ml BSA in buffer for 1 h at 4° C. with mixing. Equal aliquots of lysate (200 μl) were incubated with DMSO or PatA analog for 1 h at 4° C. with mixing, followed by addition of DMSO or B-PatA and incubation for 2 h. Each sample was combined with equal amounts of pre-blocked beads and incubated for 1 h at 4° C. Beads were washed with 3 ml of buffer, boiled in SDS-PAGE loading buffer and analyzed by SDS-PAGE and silver-staining or immunoblotting.

[2] = tested on: protein synthesis in HeLa S3 cells; assay: metabolic labelling, protein synthesis ([35S]-methionine/cysteine); assay type: cell-based
Procedure: (§1) Metabolic Labelling. About 5000 HeLa S3 cells per well in 96-well plates were cultured overnight in duplicate. One set of plates were washed twice with, then incubated for 20 min in Met and Cys free medium, then exchanged for labeling medium (RPMI 1640 with 10% FBS dialyzed in PBS overnight, and 0.15 mCi/ml [^35S]-Met and [^35S]-Cys) with indicated compounds and final volume of 100 μl per well. After 1 h or 3 h incubation, and two washes with ice-cold PBS, cells were lysed in RIPA buffer, under agitation for 30 min at 4° C. 5 μl of lysate from each well was combined with 25 μl of 1 mg/ml BSA, and added to 96 well plates, followed by addition of 150 μl of 5% TCA in ethanol and incubated at 4° C. for 30 min. Filtration was performed on a vacuum manifold as per manufacturer's instructions with 2 washes of 5% TCA in ethanol, then twice with 100% ethanol. After air-drying, scintillation counting was performed. For the second set, replacement media contained […] [^3H]-uridine and indicated compound, and incubated for 1 or 3 h. Remaining procedure was identical to cell proliferation assay.

[3] = tested on: RNA synthesis in HeLa S3 cells; assay: metabolic labelling, RNA synthesis ([3H]-uridine); assay type: cell-based
Procedure: as §1

eIF4A-eIF4B = target: T2, eIF4A-eIF4B (Homo sapiens, UniProt P60842); assay: 6XHis-eIF4AI pulldown, eIF4A-eIF4B interaction; assay type: binding; settings: HeLa lysate; PatA at 100 μM
T2 construct: The entire ORF of human eIF4AI was ligated in-frame into the BamHI and HindIII sites of the pET-28a expression vector; made in house; host or cells: bait from E. coli BL21(DE3); eIF4B endogenous in HeLa lysate
Procedure: 6XHis-eIF4AI pulldown, Co-immunoprecipitation, and m^7GTP-Sepharose pulldown. For 6XHis-eIF4AI pulldowns, HeLa lysates were prepared as described above. Equal aliquots (200 μl) of lysate were incubated with PatA analogs or DMSO and 8.5 μg of 6XHis-eIF4AI overnight at 4° C., followed by addition of Ni-NTA resin for 1 h, then resin was washed with 3 ml buffer, and boiled in SDS-PAGE loading buffer followed by SDS-PAGE and immunoblotting with indicated antibodies. For co-immunoprecipitation, 293T cells with vector control or pcDNA3-Flag-4B lysates were prepared by pipetting in: 20 mM HEPES, pH 7.4, 100 mM KCl, 0.5% Triton-X-100, 20% glycerol, protease inhibitor and 15 μg/ml RNAse A followed by clearing at 13 000 g (10 min). For DMDA-PatA treated samples, lysis and wash buffers also contained 100 nM DMDA-PatA. Anti-Flag antibody was incubated overnight at 4° C., followed by addition of Protein G beads for 4 h. Beads were washed 3× with 500 μl buffer, boiled in SDS-PAGE loading buffer followed by SDS-PAGE and immunoblotting. m^7GTP-Sepharose was performed as described (Yoder-Hill et al., 1993) with modifications. 30 μl RRL was incubated with DMSO or DMDA-PatA at room temperature for 30 min, diluted with buffer supplemented with DMSO or DMDA-PatA (20 nM), then combined with 50 μl beads for 3 h at 4° C. followed by 4 washes with 1 ml buffer. […]

[4] = tested on: mixed lymphocyte reaction; settings: read-out: IC50 in MLR (mixed lymphocyte reaction) assay; cited from earlier work

T1 sequence (P60842 2-406): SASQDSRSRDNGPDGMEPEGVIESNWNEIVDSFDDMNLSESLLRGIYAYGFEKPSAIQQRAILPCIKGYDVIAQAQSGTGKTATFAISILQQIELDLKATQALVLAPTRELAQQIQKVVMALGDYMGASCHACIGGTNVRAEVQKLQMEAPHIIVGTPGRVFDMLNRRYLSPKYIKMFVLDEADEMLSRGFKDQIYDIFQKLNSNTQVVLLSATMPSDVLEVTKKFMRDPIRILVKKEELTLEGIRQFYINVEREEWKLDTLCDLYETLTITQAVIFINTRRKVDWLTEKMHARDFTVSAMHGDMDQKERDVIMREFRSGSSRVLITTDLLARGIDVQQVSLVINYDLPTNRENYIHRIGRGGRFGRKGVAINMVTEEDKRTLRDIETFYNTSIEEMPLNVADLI
T2 sequence (P60842 whole entry): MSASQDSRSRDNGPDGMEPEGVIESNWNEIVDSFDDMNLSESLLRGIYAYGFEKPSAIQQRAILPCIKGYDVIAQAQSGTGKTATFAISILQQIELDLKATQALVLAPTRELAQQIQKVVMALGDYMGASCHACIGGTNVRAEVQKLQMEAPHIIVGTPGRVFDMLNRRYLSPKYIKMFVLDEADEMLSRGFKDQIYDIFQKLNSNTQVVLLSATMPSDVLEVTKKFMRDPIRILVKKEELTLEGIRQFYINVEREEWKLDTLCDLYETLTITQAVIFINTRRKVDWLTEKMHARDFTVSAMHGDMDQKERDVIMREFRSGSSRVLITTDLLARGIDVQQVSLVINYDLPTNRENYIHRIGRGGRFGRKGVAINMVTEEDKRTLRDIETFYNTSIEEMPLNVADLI
T2 sequence (P23588 whole entry partner): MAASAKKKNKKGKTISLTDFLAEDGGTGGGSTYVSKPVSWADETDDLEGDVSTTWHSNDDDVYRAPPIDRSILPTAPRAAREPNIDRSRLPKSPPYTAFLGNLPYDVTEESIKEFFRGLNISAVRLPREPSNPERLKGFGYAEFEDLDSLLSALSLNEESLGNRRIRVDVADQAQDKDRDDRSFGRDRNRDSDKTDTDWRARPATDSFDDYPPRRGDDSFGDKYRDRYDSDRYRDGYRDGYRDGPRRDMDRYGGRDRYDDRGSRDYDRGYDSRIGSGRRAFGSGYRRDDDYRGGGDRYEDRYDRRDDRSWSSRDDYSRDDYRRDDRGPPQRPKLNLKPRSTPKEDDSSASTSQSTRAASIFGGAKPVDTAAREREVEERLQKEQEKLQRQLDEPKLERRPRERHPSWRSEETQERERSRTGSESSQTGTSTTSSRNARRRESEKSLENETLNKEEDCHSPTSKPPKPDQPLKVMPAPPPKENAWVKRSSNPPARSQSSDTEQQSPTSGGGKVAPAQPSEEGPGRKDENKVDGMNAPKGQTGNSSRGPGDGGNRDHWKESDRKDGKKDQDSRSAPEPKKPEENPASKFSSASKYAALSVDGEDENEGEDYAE

Compound | IC50 ([1]; stimulated Jurkat T cells, listed as DMDA PatA 3, read-out: IC50, inhibition of IL-2 production / IL-2 reporter gene) | IC50 ([1]; stimulated Jurkat T cells, listed as DMDA PatA, read-out: IC50, inhibition of IL-2 production / IL-2 reporter gene) | IC50 ([1]; transfected Jurkat cells, same population of Jurkat T cells, read-out: IC50) | activity in cell proliferation assays (cancer cell lines) | stable in CDCl3 (stability in CDCl3) | competition with B-PatA for eIF4A binding (eIF4A) | effect on protein synthesis [2] | effect on RNA synthesis [3] | effect on eIF4A-eIF4B interaction (eIF4A-eIF4B) | IC50 ([1]; stimulated Jurkat T cells, listed as native pateamine A, read-out: IC50, inhibition of IL-2 production / IL-2 reporter gene) | IC50 ([1]; stimulated Jurkat T cells, read-out: IC50, inhibition of IL-2 production / IL-2 reporter gene) | IC50 (cancer cell lines; all cancer cell lines (FIG. 12), read-out: IC50, inhibition of proliferation) | decomposes in CDCl3 (stability in CDCl3) | IC50 [4] | IC50 ([2]; 1 h treatment, read-out: IC50, inhibition of protein synthesis)
CC(/C=C/C(C)=C/[C@@H]1Cc2nc(cs2)CCCCC(=O)O[C@@H](C)C/C(C)=C/C=C\C(=O)O1)=C\CN(C)C [compound 3, desmethyl, desamino-pateamine A] | 0.8 ± 0.3 nM | 0.81 ± 0.27 nM | 0.808 nM | retain most of the activity of PatA | 3-4 weeks | competitive | inhibited protein synthesis | secondary effect on RNA synthesis | enhancement of eIF4A-eIF4B interaction |  |  |  |  |  | 
CC(/C=C/C(C)=C/[C@@H]1Cc2nc(cs2)[C@@H](C)C[C@@H](N)CC(=O)O[C@@H](C)C/C(C)=C/C=C\C(=O)O1)=C\CN(C)C [Pat A (1), Pateamine A] |  |  |  |  |  | effectively competed away |  | inhibitory effect on RNA synthesis | increase in amount of eIF4B observed | 4.01 ± 0.94 nM | 4 ± 0.9 nM | < 1 nM | < 10 min | 2.6 nM | 3.3 nM
